Laboratory results published in PubChem BioAssay (NCI).
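Briefly, cells in 96-well plates were exposed to five compound concentrations for 48 h, and endpoints were estimated by linear interpolation. TGI denotes the concentration required for complete inhibition of growth.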

How the values were obtained:
Experiment in all cases: NCI anticancer screen, dose series, 48 h
[1] = system: NCI/ADR-RES ovarian
[2] = system: MALME-3M melanoma
[3] = system: NCI-H226 lung
[4] = system: HS 578T breast
[5] = system: IGROV1 ovarian
[6] = system: CCRF-CEM leukemia
[7] = system: MDA-MB-231 breast
[8] = system: LOX IMVI melanoma
[9] = system: UACC-257 melanoma
[10] = system: SF-295 CNS
[11] = system: SR leukemia
[12] = system: UO-31 renal
[13] = system: RXF 393 renal
[14] = system: MDA-N
[15] = system: CAKI-1 renal

Compound | TGI [1] [µM] | TGI [2] [µM] | TGI [3] [µM] | TGI [4] [µM] | TGI [5] [µM] | TGI [6] [µM] | TGI [7] [µM] | TGI [8] [µM] | TGI [9] [µM] | TGI [10] [µM] | TGI [11] [µM] | TGI [12] [µM] | TGI [13] [µM] | TGI [14] [µM] | TGI [15] [µM]
NC(=O)N/N=C(/CC1C(=O)Oc2ccccc21)c1ccccc1O (stereo unspecified) | 98.2 | > 100 | 82.5 | > 100 | > 100 | 56.9 | > 100 | 41.5 | > 100 | > 100 | 40.8 | > 100 | > 100 | > 100 | > 100
CSc1ccc(-c2cc(-c3nc4ccccc4[nH]3)no2)cc1 | 64.1 | > 100 | > 100 | > 100 | > 100 | > 100 | > 100 | 80.1 | 85.9 | > 100 | > 100 | 43.5 |  | > 100 | 70
COc1cc2c(cc1OC)C(=O)N(c1ccc(O)cc1)C2=O | > 100 | > 100 | > 100 | > 100 | > 100 | > 100 | > 100 | > 100 | > 100 | > 100 | > 100 |  | > 100 | > 100 | > 100
O=C1/C(=C\c2cccc(Oc3ccccc3)c2)SC(c2ccccc2)N1c1ccccc1 (stereo unspecified) | > 100 | > 100 | > 100 | > 100 |  | 86.4 | > 100 | > 100 | > 100 | > 100 | 37.2 | > 100 | > 100 | 97.9 | > 100
CCCC(CCC(N)=O)(CCC(N)=O)[N+](=O)[O-] | > 100 | > 100 | > 100 | > 100 | > 100 | > 100 | > 100 |  | > 100 | > 100 | > 100 | > 100 | > 100 | > 100 | > 100
c1ccc2c(c1)c1c(n2CCOCCN2CCCC2)CCCC1 | 44.3 | 31.3 | 49.5 | 45.3 | 56.4 | 51 | 31 | 33.9 | 53 | > 100 | 35.2 | 43.2 |  | 35.8 | 96.9
Cc1cc2/c(=C\c3ccc(N(C)C)cc3)c3ccccc3n2[n+]1C | > 100 | 2.98 | 5.87 | 8.95 | 6.76 | > 100 | 3.66 | 2.59 | 1.07 | 12.8 |  | 15.3 | 10.4 | 1.58 | 22.3
O=C(O)CCC(=O)c1ccc2c(c1)C(C(=O)O)CC2 (stereo unspecified) | > 100 | > 100 | > 100 | > 100 | > 100 |  | > 100 | > 100 | > 100 | > 100 | > 100 | > 100 | 23.1 | > 100 | 
CCOC(=O)c1[nH]c(-c2[nH]c(-c3[nH]c(-c4[nH]c(C(=O)OCC)c(C)c4C(=O)OCC)c(C(=O)OCC)c3C)c(C)c2C(=O)OCC)c(C(=O)OCC)c1C | > 100 | > 100 | > 100 | > 100 | > 100 | > 100 | > 100 | > 100 | > 100 | > 100 |  |  | > 100 | > 100 | > 100
C#C/C=C\CCCC/C=C\C#CC#CCCCC#CC#C[C@H](COS(=O)(=O)O)OS(=O)(=O)O | > 100 |  |  | > 100 | > 100 | > 100 | > 100 | > 100 | > 100 | > 100 | > 100 | > 100 |  | > 100 | > 100
Cc1c2c3ccccc3nc-2n(C)c2ccccc12 | 6.78 | 5.98 | 8.52 | 20 | 12.2 | 5.33 |  |  | 8.05 | 24.6 | 25.2 | 6.25 | 6.01 | 14.5 | 
c1cc2c(cc1NC1=NCCO1)OCO2 | > 100 | > 100 | > 100 | > 100 | > 100 | > 21.1 | > 100 | > 100 |  | > 100 | > 100 | > 100 | > 100 | > 100 | > 100
Cc1ccccc1OC(C)C(=O)NN1C(=O)CSC1c1ccc(Cl)cc1 (stereo unspecified) | > 100 | > 100 | > 82.6 | > 100 | > 100 |  | 86 | > 58.8 | > 100 | > 61.3 | > 46.3 | > 100 | > 86.9 | > 100 | > 100
CCOC(=O)c1nnsc1N/N=C\c1ccc([N+](=O)[O-])cc1 | > 100 | > 100 | > 100 | > 100 | > 100 | > 100 | > 100 |  | > 100 | > 100 |  | > 100 | > 100 | > 100 | 
COC(=O)C1Cc2cc3c(cc2C1=O)CCCC3 (stereo unspecified) | > 100 | > 100 | 87 | > 100 | > 100 | > 100 | > 100 | > 100 | > 100 | > 100 | > 100 | > 100 |  | > 100 | > 100
COC(=O)c1ccc(/C=C2\Oc3ccccc3C2=O)cc1 | > 100 |  | > 100 | > 100 | > 100 | > 100 | > 100 |  | > 100 | > 100 | > 100 | > 100 | > 100 | > 100 | > 100
